We go through one compound from patent publication EP0501442B1, “8-chloro-benzothiazepine-compound for prophylaxis and treatment of sequelae of cerebral neurocyte necrosis” (priority 1991, dated 1992).

This data set is described as follows: Acute oral toxicity (50 % lethal dose) in mice. Particulars: mouse, in vivo, orally administered to mice, read-out: 50 % lethal dose (LD₅₀). The protocol:
Further, the benzothiazepine derivative (I) or a pharmacologically acceptable salt thereof has low toxicity and high safety. For example, when 2-(4-methoxyphenyl)-3-acetoxy-5-[2-(dimethylamino)ethyl]-8-chloro-2,3-dihydro-1,5-benzothiazepin-4(5H)-one·maleate is orally administered to mice, its 50 % lethal dose (LD₅₀) was about 800 mg/kg.

In the case of `COc1ccc([C@@H]2Sc3cc(Cl)ccc3N(CCN(C)C)C(=O)[C@@H]2OC(C)=O)cc1` [(+)-cis-2-(4-methoxyphenyl)-3-acetoxy-5-[2-(dimethylamino)ethyl]-8-chloro-2,3-dihydro-1,5-benzothiazepin-4(5H)-one·maleate], the LD50 is around 800 mg/kg.
